From patent US10550105B2 (Ribon Therapeutics Inc., priority 2018, dated 2020)

target: PARP7 (Homo sapiens (Human), UniProt Q7Z3E1); assay: Enzymatic assay for inhibition of PARP7: TR-FRET displacement of biotinylated Probe A from the TIPARP active site; type: binding; settings: Table A-1
Outline: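 Read-out: 665/615 nm emission ratio (ex 320 nm, 90 μs delay) indexing bound TIPARP–Probe A. Final incubation 30 min, 25° C; compounds in dose response. Curve fit of % inhibition vs concentration; Hill slope floating or fixed at 1 (3-parameter).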

PARP7, sequence (Q7Z3E1 whole entry): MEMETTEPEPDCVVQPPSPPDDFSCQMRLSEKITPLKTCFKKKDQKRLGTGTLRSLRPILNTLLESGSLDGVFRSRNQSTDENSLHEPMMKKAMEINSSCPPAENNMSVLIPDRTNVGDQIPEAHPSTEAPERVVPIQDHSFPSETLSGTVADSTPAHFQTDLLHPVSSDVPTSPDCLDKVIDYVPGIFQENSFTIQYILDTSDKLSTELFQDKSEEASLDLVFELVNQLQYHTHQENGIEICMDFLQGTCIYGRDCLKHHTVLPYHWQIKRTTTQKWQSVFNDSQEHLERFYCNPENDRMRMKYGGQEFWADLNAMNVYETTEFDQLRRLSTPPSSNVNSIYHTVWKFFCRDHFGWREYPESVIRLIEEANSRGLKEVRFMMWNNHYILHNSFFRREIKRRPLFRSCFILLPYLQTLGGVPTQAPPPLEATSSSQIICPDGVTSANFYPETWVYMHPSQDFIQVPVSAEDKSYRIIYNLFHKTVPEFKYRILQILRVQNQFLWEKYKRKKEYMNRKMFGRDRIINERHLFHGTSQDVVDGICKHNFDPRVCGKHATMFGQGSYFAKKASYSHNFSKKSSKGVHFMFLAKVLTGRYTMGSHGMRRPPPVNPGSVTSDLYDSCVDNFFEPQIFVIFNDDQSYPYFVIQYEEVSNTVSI

| Compound | IC50 [µM] |
| --- | --- |
| N#Cc1ccc(N2CCN(C(=O)CCOC[C@H]3c4ccccc4CN3c3cn[nH]c(=O)c3C(F)(F)F)CC2)nc1 (single isomer, unassigned) [Example 93 Isomer B] | 0.1 to 1 |
| O=C(CCNC[C@H]1c2ccccc2CN1c1cn[nH]c(=O)c1C(F)(F)F)N1CCN(c2ncc(C(F)(F)F)cn2)CC1 [Example 434, (R)-5-(1-(((3-Oxo-3-(4-(5-(trifluoromethyl)pyrimidin-2-yl)piperazin-1-yl)propyl)amino)methyl)isoindolin-2-yl)-4-(trifluoromethyl)pyridazin-3(2H)-one] | ≥ 1 |
| O=C(O)c1cccc(OCC2c3ccccc3CN2c2cn[nH]c(=O)c2C(F)(F)F)c1 (stereo not shown) [Example 342, 3-((2-(6-Oxo-5-(trifluoromethyl)-1,6-dihydropyridazin-4-yl)isoindolin-1-yl)methoxy)benzoic acid] | ≥ 1 |
| COC[C@@H](COCCC(=O)N1CCN(c2cnc(C(F)(F)F)cn2)CC1)Nc1cn[nH]c(=O)c1C(F)(F)F [Example 681, (S)-5-((1-Methoxy-3-(3-oxo-3-(4-(5-(trifluoromethyl)pyrazin-2-yl)piperazin-1-yl)propoxy)propan-2-yl)amino)-4-(trifluoromethyl)pyridazin-3(2H)-one] | < 0.1 |
| O=C(C[C@@H]1CC[C@H]([C@@H]2CCCN2c2cn[nH]c(=O)c2C(F)(F)F)O1)N1CCN(c2ccc(Cl)cn2)CC1 [Example 148B, 5-[(2S)-2-[(2R,5S)-5-[2-[4-(5-chloropyridin-2-yl)piperazin-1-yl]-2-oxoethyl]oxolan-2-yl]pyrrolidin-1-yl]-4-(trifluoromethyl)-2,3-dihydropyridazin-3-one] | 0.1 to 1 |
| N#Cc1ccc(N2CCN(C(=O)C3CC(OC[C@@H]4CCN(c5cn[nH]c(=O)c5C(F)(F)F)C4)C3)CC2)nc1 (stereo partly drawn) [Example 121A, 6-(4-((1R,3R)-3-((1-(6-oxo-5-(trifluoromethyl)-1,6-dihydropyridazin-4-yl)pyrrolidin-3-yl)methoxy)cyclobutanecarbonyl)piperazin-1-yl)nicotinonitrile] | < 0.1 |
| CC(=O)N1CCC[C@H]2CN(c3cn[nH]c(=O)c3C(F)(F)F)C[C@H]21 [Example 143, 5-[(4aS,7aS)-1-acetyl-octahydro-1H-pyrrolo[3,4-b]pyridin-6-yl]-4-(trifluoromethyl)-2,3-dihydropyridazin-3-one] | ≥ 1 |
| O=c1[nH]ncc(N2Cc3ccccc3[C@@H]2CO)c1C(F)(F)F [Example 246, (R)-5-(1-(Hydroxymethyl)isoindolin-2-yl)-4-(trifluoromethyl)pyridazin-3(2H)-one] | ≥ 1 |
| C[C@@H](COCCC(=O)N1CCN(c2ncc(C(C)(F)F)cn2)CC1)Nc1cn[nH]c(=O)c1C(F)(F)F [Example 707, (S)-5-((1-(3-(4-(5-(1,1-Difluoroethyl)pyrimidin-2-yl)piperazin-1-yl)-3-oxopropoxy)propan-2-yl)amino)-4-(trifluoromethyl)pyridazin-3(2H)-one] | < 0.1 |
| C[C@@H](COCCC(=O)N1CCC(Oc2ncc(C(F)(F)F)cn2)C1)Nc1cn[nH]c(=O)c1C(F)(F)F (stereo partly drawn) [Example 716, 5-(((2S)-1-(3-Oxo-3-(3-((5-(trifluoromethyl)pyrimidin-2-yl)oxy)pyrrolidin-1-yl)propoxy)propan-2-yl)amino)-4-(trifluoromethyl)pyridazin-3(2H)-one] | < 0.1 |
| O=c1[nH]ncc(N2Cc3cc(F)c(OCCO)cc3C2)c1C(F)(F)F [Example 245, 5-(5-Fluoro-6-(2-hydroxyethoxy)isoindolin-2-yl)-4-(trifluoromethyl)pyridazin-3(2H)-one] | < 0.1 |
| N#Cc1cccc2c1CN(c1cn[nH]c(=O)c1C(F)(F)F)C2 [Example 206, 2-(6-Oxo-5-(trifluoromethyl)-1,6-dihydropyridazin-4-yl)isoindoline-4-carbonitrile] | < 0.1 |
| N#Cc1ccc(N2CCN(C(=O)CCNCCOc3cccc4c3CN(c3cn[nH]c(=O)c3C(F)(F)F)C4)CC2)nc1 [Example 492, 6-(4-(3-((2-((2-(6-Oxo-5-(trifluoromethyl)-1,6-dihydropyridazin-4-yl)isoindolin-4-yl)oxy)ethyl)amino)propanoyl)piperazin-1-yl)nicotinonitrile] | < 0.1 |
| N#Cc1ccc(N2CCN(C(=O)CCOC[C@@H]3CCCN3c3cn[nH]c(=O)c3C(F)(F)F)CC2)cc1 [Example 462, (S)-4-(4-(3-((1-(6-Oxo-5-(trifluoromethyl)-1,6-dihydropyridazin-4-yl)pyrrolidin-2-yl)methoxy)propanoyl)piperazin-1-yl)benzonitrile] | < 0.1 |
| N#Cc1ccc(N2CCN(C(=O)[C@@H]3CCC[C@H](OC[C@@H]4CCCN4c4cn[nH]c(=O)c4C(F)(F)F)C3)CC2)nc1 (single isomer, unassigned) [Example 57 Isomer D] | 0.1 to 1 |
| N#Cc1ccc(N2CCN(C(=O)C/C=C\OC[C@@H]3CCCN3c3cn[nH]c(=O)c3C(F)(F)F)CC2)nc1 (single isomer, unassigned) [Example 96 Isomer A] | < 0.1 |
| O=C(c1cccc(OCC2c3ccccc3CN2c2cn[nH]c(=O)c2C(F)(F)F)c1)N1CCN(c2ncc(C(F)(F)F)cn2)CC1 (stereo not shown) [Example 377, 4-(Trifluoromethyl)-5-(1-((3-(4-(5-(trifluoromethyl)pyrimidin-2-yl)piperazine-1-carbonyl)phenoxy)methyl)isoindolin-2-yl)pyridazin-3(2H)-one] | < 0.1 |
| N#Cc1ccc(N2CCN(C(=O)CNCCCOc3cn[nH]c(=O)c3C(F)(F)F)CC2)nc1 [Example 524] | 0.1 to 1 |
| N#Cc1ccc(N2CCC3(CCN(C(=O)CCOC[C@@H]4CCCN4c4cn[nH]c(=O)c4C(F)(F)F)C3)CC2)nc1 [Example 103, 6-[2-(3-[[(2S)-1-[6-oxo-5-(trifluoromethyl)-1,6-dihydropyridazin-4-yl]pyrrolidin-2-yl]methoxy]propanoyl)-2,8-diazaspiro [4.5]decan-8-yl]pyridine-3-carbonitrile] | 0.1 to 1 |
| CC(=O)N1CCC(Oc2cnc3c(c2)CN(c2cn[nH]c(=O)c2C(F)(F)F)C3)CC1 [Example 8, 5-[3-[(1-acetylpiperidin-4-yl)oxy]-5H,6H,7H-pyrrolo[3,4-b]pyridin-6-yl]-4-(trifluoro-methyl)-2,3-dihydropyridazin-3-one] | 0.1 to 1 |
| O=C(CCOC[C@@H](CC1CCNCC1)Nc1cn[nH]c(=O)c1C(F)(F)F)N1CCN(c2ncc(C(F)(F)F)cn2)CC1 [Example 649, (R)-5-((1-(3-Oxo-3-(4-(5-(trifluoromethyl)pyrimidin-2-yl)piperazin-1-yl)propoxy)-3-(piperidin-4-yl)propan-2-yl)amino)-4-(trifluoromethyl)pyridazin-3(2H)-one] | < 0.1 |

Continued, values first:

| IC50 [µM] | Compound |
| --- | --- |
| < 0.1 | O=C(CCOC[C@@H](CCO)Oc1cn[nH]c(=O)c1C(F)(F)F)N1CCN(c2ncc(Cl)cn2)CC1 [Example 704, (R)-5-((1-(3-(4-(5-Chloropyrimidin-2-yl)piperazin-1-yl)-3-oxopropoxy)-4-hydroxybutan-2-yl)oxy)-4-(trifluoromethyl)pyridazin-3(2H)-one] |
| < 0.1 | O=C(CCOC[C@H](CCO)Nc1cn[nH]c(=O)c1C(F)(F)F)N1CCN(c2ncc(C(F)(F)F)cn2)CC1 [Example 643, (S)-5-((4-Hydroxy-1-(3-oxo-3-(4-(5-(trifluoromethyl)pyrimidin-2-yl)piperazin-1-yl)propoxy)butan-2-yl)amino)-4-(trifluoromethyl)pyridazin-3(2H)-one] |
| < 0.1 | NCCOc1cccc2c1CN(c1cn[nH]c(=O)c1C(F)(F)F)C2 [Example 209, 5-(4-(2-Aminoethoxy)isoindolin-2-yl)-4-(trifluoromethyl)pyridazin-3(2H)-one] |
| < 0.1 | O=C(CCOCCOc1cn[nH]c(=O)c1Br)N1CCN(c2ncc(Cl)cn2)CC1 [Example 547, 4-Bromo-5-(2-[3-[4-(5-chloropyrimidin-2-yl)piperazin-1-yl]-3-oxopropoxy]ethoxy)-2,3-dihydropyridazin-3-one] |
| < 0.1 | N#Cc1ccc(N2CCN(C(=O)c3ccnc(OC[C@@H]4c5ccccc5CN4c4cn[nH]c(=O)c4C(F)(F)F)n3)CC2)nc1 (single isomer, unassigned) [Example 38 Isomer A] |
| < 0.1 | N#Cc1ccc(N2CCN(C(=O)c3cccc(OCCOCC4CCN(c5cn[nH]c(=O)c5C(F)(F)F)C4)c3)CC2)nc1 (stereo not shown) [Example 467, 6-(4-(3-(2-((1-(6-Oxo-5-(trifluoromethyl)-1,6-dihydropyridazin-4-yl)pyrrolidin-3-yl)methoxy)ethoxy)benzoyl)piperazin-1-yl)nicotinonitrile] |
| < 0.1 | O=C(c1cncc(OCC2c3ccccc3CN2c2cn[nH]c(=O)c2C(F)(F)F)c1)N1CCN(c2ncc(C(F)(F)F)cn2)CC1 (stereo not shown) [Example 378, 4-(Trifluoromethyl)-5-(1-(((5-(4-(5-(trifluoromethyl)pyrimidin-2-yl)piperazine-1-carbonyl)pyridin-3-yl)oxy)methyl)isoindolin-2-yl)pyridazin-3(2H)-one] |
| < 0.1 | CC(=O)N(C)CCOc1cccc2c1CN(c1cn[nH]c(=O)c1C(F)(F)F)C2 [Example 224, N-Methyl-N-(2-((2-(6-oxo-5-(trifluoromethyl)-1,6-dihydropyridazin-4-yl)isoindolin-4-yl)oxy)ethyl)acetamide] |
| < 0.1 | N#Cc1ccc(N2CCN(C(=O)CCOC[C@@H]3C[C@H](C(F)(F)F)CN3c3cn[nH]c(=O)c3C(F)(F)F)CC2)nc1 [Example 133, 6-[4-(3-[[(2S,4S)-1-[6-oxo-5-(trifluoromethyl)-1,6-dihydropyridazin-4-yl]-4-(trifluoromethyl)pyrrolidin-2-yl]methoxy]propanoyl)piperazin-1-yl]pyridine-3-carbonitrile] |
| < 0.1 | C[C@@H](COCCS(=O)(=O)N1CCN(c2ncc(C(F)(F)F)cn2)CC1)Nc1cn[nH]c(=O)c1C(F)(F)F [Example 620, (S)-4-(Trifluoromethyl)-5-((1-(2-((4-(5-(trifluoromethyl)pyrimidin-2-yl)piperazin-1-yl)sulfonyl)ethoxy)propan-2-yl)amino)pyridazin-3(2H)-one] |
